Measurements taken from patent US12686690B2, “Macrocyclic urea orexin receptor agonists” (Merck Sharp & Dohme LLC, priority 2020, dated 2026).

Target: T1, hOX2R (Homo sapiens, UniProt O43614)
T1 construct: expressed in transfected cells; host or cells: CHO cells (G418 selection)
T1 sequence (O43614 1-444): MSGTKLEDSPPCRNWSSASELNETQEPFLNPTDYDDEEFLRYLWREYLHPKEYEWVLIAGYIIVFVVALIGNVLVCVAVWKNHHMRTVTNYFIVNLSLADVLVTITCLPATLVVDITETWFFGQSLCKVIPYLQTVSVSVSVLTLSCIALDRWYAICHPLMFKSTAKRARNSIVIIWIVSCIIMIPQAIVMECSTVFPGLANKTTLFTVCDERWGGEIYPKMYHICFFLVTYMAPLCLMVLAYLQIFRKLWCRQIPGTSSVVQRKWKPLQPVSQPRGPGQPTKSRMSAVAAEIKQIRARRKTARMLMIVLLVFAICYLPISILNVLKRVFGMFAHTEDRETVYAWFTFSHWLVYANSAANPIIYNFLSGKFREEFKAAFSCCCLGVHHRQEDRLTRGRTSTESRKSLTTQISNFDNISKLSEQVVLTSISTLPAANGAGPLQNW
Test: hOX2R IPone assay (orexin receptor agonism)
Type: cell-based
Conditions: IPone readout; for hOX2R_Ipone max %act: maximal activation; for EC50: orexin receptor agonist, read-out: hOX2R_IPone EC50

SMILES	hOX2R_Ipone max %act [%]	EC50 [nM]
CCN1C(=O)NC(CC#N)CCCCCOc2nc(cn3ccnc23)-c2cc(ncc2OC)[C@H]1C (stereo partly drawn) [Example 194, 2-((3R,E)-4-ethyl-25-methoxy-3-methyl-5-oxo-13-oxa-4,6-diaza-1(6,8)-imidazo[1,2-a]pyrazina-2(4,2)-pyridinacyclotridecaphane-7-yl)acetonitrile]	102.2	1.2
CCN1C(=O)N[C@@H](CC(F)(F)F)CCCCCOc2nc(nn3ccnc23)-c2cc(cnc2OC)[C@H]1C [Example 99, (12R,16R)-13-ethyl-8-methoxy-12-methyl-16-(2,2,2-trifluoroethyl)-12,13,16,17,18,19,20, 21-octahydro-6,23-(azeno)-11,7-(metheno)imidazo[2,1-c][1,4,5,9,13,15] oxapentaazacycloheni-cosin-14(15H)-one]	95.9	48.8
CCN1C(=O)N[C@@H](CCC(F)(F)F)CCCCCOc2nc(cn3ccnc23)-c2cnnc(c2)[C@H]1C [Example 159, (3R,7R,E)-4-ethyl-3-methyl-7-(3,3,3-trifluoropropyl)-13-oxa-4,6-diaza-1(6,8)-imidazo[1,2-a]pyrazina-2(5,3)-pyridazinacyclotridecaphan-5-one]	72.77	541
CCN1C(=O)N[C@@H](C(F)(F)F)CCCCOc2nc(cn3ccnc23)-c2cc(ncc2OC)C1C(F)(F)F (single isomer, unassigned) [Example 39A]	97.7	60.5
CCN1C(=O)NC(C(N)=O)CCCCCOc2nc(cn3ccnc23)-c2cc(ncc2F)[C@H]1C (stereo partly drawn) [Example 225, (3R,E)-4-ethyl-25-fluoro-3-methyl-5-oxo-13-oxa-4,6-diaza-1(6,8)-imidazo[1,2-a]pyrazina-2(4,2)-pyridinacyclotridecaphane-7-carboxamide]	78.64	286
CCN1C(=O)N[C@@H](CCC(F)(F)F)CCCCCOc2nc(cn3ncnc23)-c2nc(ncc2OC)[C@H]1C [Example 147, (3R,7R,E)-4-ethyl-25-methoxy-3-methyl-7-(3,3,3-trifluoropropyl)-13-oxa-4,6-diaza-1(6,8)-[1,2,4]triazolo[1,5-a]pyrazina-2(4,2)-pyrimidinacyclotridecaphan-5-one]	102.4	3.69
CCN1C(=O)NC(CCC(F)(F)F)CCCCCOc2cc(n3nccc3c2)-c2ccnc(c2)C1C [Example 156, (3R,7R,E)-4-ethyl-3-methyl-7-(3,3,3-trifluoropropyl)-13-oxa-4,6-diaza-1(5,7)-pyrazolo[1,5-a]pyridina-2(4,2)-pyridinacyclotridecaphan-5-one]	100.3	1.32
CCN1C(=O)NC(CC2CCOC2)CCCCCOc2nc(cn3ccnc23)-c2cc(ncc2OC)[C@H]1C (single isomer, unassigned) [Example 67A]	99.8	9.6
CCN1C(=O)NC(CC2CCOC2)CCCCCOc2nc(cn3ccnc23)-c2cc(ncc2OC)[C@H]1C (single isomer, unassigned) [Example 67B]	101	2.1
CCN1C(=O)N[C@@H](CCC(F)(F)F)CCCCCOc2cc(cn3ccnc23)-c2cc(cnc2OC)[C@H]1C [Example 91, (12R,16R)-13-ethyl-8-methoxy-12-methyl-16-(3,3,3-trifluoropropyl)-12,13,16,17,18,19,20, 21-octahydro-6,23:11,7-di(metheno) imidazo[2,1-c][1,4,9, 13,15]oxatetraazacyclo-henicosin-14(15H)-one]	100.5	0.6
CCN1C(=O)NC(CC2CCC2)CCCCCOc2nc(cn3ccnc23)-c2cc(ncc2OC)[C@H]1C (single isomer, unassigned) [Example 61A]	100.3	34.6
CCN1C(=O)N[C@@H](CCC(F)(F)F)CCCCCOc2cc(cc3ccnn23)-c2cc(nnc2OC)[C@H]1C [Example 140, (3R,7R,E)-4-ethyl-26-methoxy-3-methyl-7-(3,3,3-trifluoropropyl)-13-oxa-4,6-diaza-1(5,7)-pyrazolo[1,5-a]pyridina-2(5,3)-pyridazinacyclotridecaphan-5-one]	101.9	1.4
CCN1C(=O)NC(C)CCCCCOc2nc(cn3ccnc23)-c2cc(ncc2OC)[C@H]1C (single isomer, unassigned) [Example 9B]	100.9	6
CCN1C(=O)NC(COC)CCCCCOc2nc(cn3ccnc23)-c2cc(ncc2F)[C@H]1C (stereo partly drawn) [Example 199, (3R,E)-4-ethyl-25-fluoro-7-(methoxymethyl)-3-methyl-13-oxa-4,6-diaza-1(6,8)-imidazo[1,2-a]pyrazina-2(4,2)-pyridinacyclotridecaphan-5-one]	100.6	4.25
CCN1C(=O)NCCCCCCOc2nc(cn3ccnc23)-c2cccc(c2)[C@H]1C [Example 12, (12R)-13-ethyl-12-methyl-12,13,16,17,18,19, 20,21-octahydro-6,23-(azeno)-11,7-(metheno) imidazo[2,1-c][1,4,13,15]oxa-triazacyclohenicosin-14(15H)-one]	99.76	20.3
CCN1C(=O)NC(CC23CC(C2)C3)CCCCCOc2nc(nn3ccnc23)-c2cc(ncc2OC)[C@H]1C (stereo partly drawn) [Example 203, (3R,E)-7-(bicyclo[1.1.1]pentan-1-ylmethyl)-4-ethyl-25-methoxy-3-methyl-13-oxa-4,6-diaza-1(2,4)-imidazo[2,1-f][1,2,4]triazina-2(4,2)-pyridinacyclotridecaphan-5-one]	100	11.4
CCN1C(=O)NCCOCCOc2nc(cn3ccnc23)-c2cccc(c2)[C@H]1C [Example 2, (12R)-13-ethyl-12-methyl-12,13,16,17,19,20-hexahydro-6,22-(azeno)-11,7-(metheno)imidazo[1,2-o][1,18,4,6,15]dioxatriaza-cycloicosin-14(15H)-one]	64.8	813
CCN1C(=O)NCCC2CCC(C2)Oc2nc(cn3ccnc23)-c2cccc(c2)C1C [Example 1B, (10R,E)-9-ethyl-10-methyl-3-oxa-7,9-diaza-2(6,8)-imidazo[1,2-a]pyrazina-1(1,3)-benzena-4(1,3)-cyclopentanacyclodecaphan-8-one]	99.5	126
CCN1C(=O)NC(CCC(F)(F)F)CCCCCOc2nc(cn3ccnc23)-c2cc(ncc2Cl)[C@H]1C (stereo partly drawn) [Example 198, (3R,E)-25-chloro-4-ethyl-3-methyl-7-(3,3,3-trifluoropropyl)-13-oxa-4,6-diaza-1(6,8)-imidazo[1,2-a]pyrazina-2(4,2)-pyridinacyclotri-decaphan-5-one]	103.1	0.58
CCN1C(=O)N[C@@H](CCC(F)(F)F)CCS(=O)(=O)CCOc2nc(cn3ncnc23)-c2cc(ncc2OC)[C@H]1C [Example 135, (3R,7S,E)-4-ethyl-25-methoxy-3-methyl-7-(3,3,3-trifluoropropyl)-13-oxa-10-thia-4,6-diaza-1(6,8)-[1,2,4]triazolo[1,5-a]pyrazina-2(4,2)-pyridinacyclotridecaphan-5-one 10,10-dioxide]	93.31	170
CCN1C(=O)NC(c2nc(C)cs2)CCCCCOc2nc(cn3ccnc23)-c2cc(ncc2OC)[C@H]1C (stereo partly drawn) [Example 218, (3R,E)-4-ethyl-2^5-methoxy-3-methyl-7-(4-methylthiazol-2-yl)-13-oxa-4,6-diaza-1(6,8)-imidazo[1,2-a]pyrazina-2(4,2)-pyridinacyclotridecaphan-5-one]	102.4	0.9

Other lines, results leading:

hOX2R_Ipone max %act [%]	EC50 [nM]	SMILES
96.6	528	CCN1C(=O)N[C@@H](CCC(F)(F)F)CCCCCOc2nc(cn3cc(C)nc23)-c2cc(nc3ccoc23)C1C (single isomer, unassigned) [Example 75A]
99.6	0.8	CCN1C(=O)NC(CCOC(F)(F)F)CCCCCOc2nc(cn3ccnc23)-c2cc(ncc2OC)[C@H]1C (single isomer, unassigned) [Example 73B]
99.1	24.2	CCN1C(=O)N[C@@H](CCC(F)(F)F)CCCCCOc2nc(cn3ccnc23)-c2cc(c(C)cn2)C1C (single isomer, unassigned) [Example 92B]
99.7	6.6	CCN1C(=O)NC(CC2CC(F)(F)C2)CCCCCOc2nc(cn3ccnc23)-c2cc(ncc2OC)[C@H]1C (single isomer, unassigned) [Example 69A]
102.7	0.7	CCN1C(=O)NC(CCC(C)F)CCCCCOc2nc(cn3ccnc23)-c2cc(ncc2OC)[C@H]1C (single isomer, unassigned) [Example 72B]
99.5	5.6	CCN1C(=O)NC(CCC(C)F)CCCCCOc2nc(cn3ccnc23)-c2cc(ncc2OC)[C@H]1C (single isomer, unassigned) [Example 72A]
100.1	166	CCN1C(=O)N[C@@H](CCC(F)(F)F)CCCCCOc2nc(cn3ccnc23)-c2cc(nc(C)n2)[C@@H]1C [Example 119A, (12S,16R)-13-ethyl-9,12-dimethyl-16-(3,3,3-trifluoropropyl)-12,13,16,17,18,19,20,21-octahydro-6,23-(azeno)-11,7-(metheno)imidazo[2,1-c][1,4,8,10,13,15]oxapentaazacyclohenicosin-14(15H)-one]
